According to the NIST ThermoML archive (doi:10.1016/j.jct.2011.02.005):
Numbers after ± are expanded uncertainties.

Experiment: mn = molality of the nth substance listed, in mol/kg
Conditions: 298.15 K, 101 kPa, Liquid, Vibrating tube method

mass density (m1 = 0.0499) [kg/m3] | mass density (m1 = 0.1004) [kg/m3] | mass density (m1 = 0.1501) [kg/m3] | mass density (m1 = 0.2) [kg/m3] | mass density (m1 = 0.2492) [kg/m3] | mass density (m1 = 0.2995) [kg/m3] | mass density (m1 = 0.3512) [kg/m3] | mass density (m1 = 0.3991) [kg/m3] | mass density (m1 = 0.4485) [kg/m3] | mass density (m1 = 0.5013) [kg/m3] | mass density (m1 = 0.5509) [kg/m3] | mass density (m1 = 0.5987) [kg/m3] | mass density (m1 = 0.1998) [kg/m3] | mass density (m1 = 0.35) [kg/m3] | mass density (m1 = 0.4985) [kg/m3] | mass density (m1 = 0.6496) [kg/m3] | mass density (m1 = 0.7999) [kg/m3] | mass density (m1 = 0.95) [kg/m3] | Structure (SMILES)
1000.08 ± 0.064 | 1002.85 ± 0.065 | 1005.55 ± 0.066 | 1008.22 ± 0.067 | 1010.83 ± 0.068 | 1013.46 ± 0.069 | 1016.13 ± 0.07 | 1018.57 ± 0.071 | 1021.04 ± 0.072 | 1023.68 ± 0.074 | 1026.15 ± 0.075 | 1028.49 ± 0.076 |  |  |  |  |  |  | O=C(O)CNCC(=O)O [N-(carboxymethyl)glycine] + O
 |  |  |  |  |  |  |  |  |  |  |  | 1006.8 ± 0.067 | 1013.81 ± 0.07 | 1020.47 ± 0.073 | 1027.38 ± 0.077 | 1033.72 ± 0.08 | 1039.84 ± 0.084 | OC[C@@H](O)[C@H](O)[C@@H](O)CO [xylitol] + O
